Legend:
[1] = Single fiber tensile strength test of hair after chemical treatment (NAIR, PAA, bleach creams, reductive solution, triacetin/H2O2)
Source text: Since the quality and diameter of the hair samples are variables, hair sample pre-selection is used to achieve reasonable standard deviation in the tensile strength test. […] To prevent contamination, gloves were used while handing hair fiber samples.
Plastic transfer pipette tubes were cut to 2^7/8 inches (approximately 7.3 cm) by cutting off the bulb end. A hair bundle with 7 to 20 hair strands was carefully inserted into the tube keeping the hair fibers together by taping one end together and attached to the outside top of the wider end of the transfer pipette. This also helped to keep the strands in place once in the tube.
Solution/cream (200 μL) was added to a 2.0-mL microfuge tube. The hair sample was placed into tube by inserting the smaller end of transfer pipette inside tube with hair protruding out of the tip such that the hair strands formed a U shape and the free end of the strands hung loosely outside of the microfuge tube.
After certain application, hair samples were dried and equilibrated in the temperature and humidity control room for at least 12 hr, preferably 24 hr, before tensile strength test.
(§1) Hair samples were cut into pieces 4-inches in length. The denier number (liner mass density) of each hair fiber was measured by Textechno Vibromat Instrument (Textechno Herbert Stein GmbH & Co. KG; Germany). The hair fibers were tested according to ASTM D 3822-01 (“Tensile Properties of Single Textile Fibers”; ASTM International, West Conshohocken, Pa., 2001), on an Instron testing system (Instron Model 1122 Tester; Instron, Mass.) at about 70° F. (approximately 21° C.) and 65% relative humidity. The treated area of the hair sample was placed in the middle of the gauge and both ends were gripped on the test heads. Both fiber ends were attached on a piece of tape, respectively, for easy handling and gripping on the test heads. The test used 2-inch (5.1 cm) gauge length, […], and 1.2 inch/min (3 cm/min) pulling rate. The force-strain curve of the fiber was recorded during the test. The tenacity at maximum (gf/den) was calculated by dividing maximum force (gf) by denier number (den). Note that (gf/den)/11.33=Newtons/tex (N/tex).
Tenacity at maximum (tensile strength) of each hair sample was used to compare the integrity of the hair sample. A lower value of the tenacity at maximum is indicative of an improved weakening efficacy. A commercial depilatory cream, NAIR® (an alkali/potassium thioglycolate-based hair removal product from Church and Dwight Co., Inc., Princeton, N.J.), was used to set a target level for hair weakening. Based on the NAIR® product instruction, the recommended treatment time is 3 min to 10 min. Therefore, the tenacity at maximum of a hair sample treated with NAIR® between 3 min to 10 min was used to determine the target level. During hair treatment, about 200 μL of NAIR® cream was added to a 2-mL microfuge tube and hair samples were soaked in the cream for 3, 5 and 10 min. Hair samples were then rinsed with tape water to remove all the cream and then were dried under a stream of N2. […] Therefore, the desired level of hair weakening efficacy was targeted in the range from 0.8 gf/den to 1.3 gf/den under similar testing conditions.
Peracetic acid was added in 50 mM phosphate buffer to prepare solutions with different PAA concentrations at pH 6 and pH 8. A PAA solution (200 μL) was added to a 2-mL microfuge tube and hair samples were inserted for 2 hours. Hair samples were then rinsed with deionized water and dried under N2.
[…] […] The treatment was repeated for 7 times or 15 times, i.e., 4 hours and 8 hours of total exposure time, respectively.
The same multiple treatment as in Example 3 was applied with two commercially available hydrogen peroxide-based bleaching creams (SALLY HANSEN® bleach cream for face and SALLY HANSEN® extra strength bleach cream for face & body; Del Laboratories, Inc., Uniondale, N.Y.) and 6 wt % hydrogen peroxide (H2O2) in a similar pH 8, 20% urea, phosphate solution. […]

[2] = Wool removal from sheep pelt strips by PAA solutions; conditions: 15 wt % urea, pH 8
Procedure: To evaluate the efficacy of PAA solution on removing the wool from a sheep pelt sample, the following experiment was carried out. Pelt strips (0.5 cm×3 cm) were cut and the wool fibers were trimmed to a length of 0.2 cm. Each solution (50 μL) was applied on separated pelt strip (half of the length treated and half of the length untreated). The pelt strip samples were allowed to stand for 10 min at room temperature ([…]). Excess liquid was removed by blotting and the samples were put inside a plastic tube for 30 min for further treatment and then washed with 50 μL of a 2% sodium lauryl ether sulfate (SLES) solution, rinsed with tap water (excess liquid was removed by blotting), and then dried under N2. The treatment was repeated until the wool fibers in treated area were all removed. Three different solutions were tested using this protocol, a) 0.6 wt % PAA, 15 wt % urea, with 0.5 wt % SLES in a pH 8, 50 mM phosphate buffer; b) 0.6 wt % PAA and 15 wt % urea in a pH 8, 50 mM phosphate buffer; c) 0.2 wt % PAA, 15 wt % urea, 0.5 wt % SLES in a pH 8, 50 mM phosphate buffer. At the 19th, 23rd, 24th application, respectively, the wool fibers on the samples treated with solution (a), (b) and (c) were completely removed. The addition of 0.5 wt % SLES seems to accelerate the wool removal process.

[3] = Single fiber tensile strength and bleaching start after two-step enzymatic application; conditions: two-step with buffer rinse
Procedure: as §1
In a two-step application, the hair strands are first treated with perhydrolase solutions to allow the enzyme to bind hair. The hair strands are then dried or rinsed with buffer and dried. The rinse step is intended to remove excess unbound enzyme from the hair. The hair strands are soaked in triacetin and H2O2 solutions. The application is repeated for multiple times.
One experiment was carried out with C277S-HC263 and untargeted T. maritima variant C277S using the following protocol: • 1. Enzyme solutions comprising 0.5 mg/mL enzyme in 50 mM phosphate buffer (pH 8) were made with or without 10 wt % urea. • 2. Seven (7) hair strands were soaked in 0.2 mL of an enzyme solution for 10 min and then dried under N2 without prior rinsing. • 3. The hair strands were then soaked in 0.2 mL of a pH 8 solution containing 100-mM triacetin and 250-mM H2O2 for 15 min, dried, then rinsed with DI water and then dried again. • 4. Steps 2-3 were repeated up to 15 times.
Another experiment was carried out with C277S-HC263 (SEQ ID NO: 288), CPAH-HC263 (SEQ ID NO: 294), CPAH-HC1010 (SEQ ID NO: 295) and untargeted C277S using the following protocol: • 1. Enzyme solutions comprising 1.0 mg/mL enzyme in 50 mM phosphate buffer (pH 6) were prepared. For solutions containing two enzymes, the concentration of each enzyme was approximately 0.5 mg/mL. • 2. Seven (7) hair strands were soaked in 0.2 mL of an enzyme solution for 10 min, rinsed with 50 mM phosphate buffer (pH 6), and then dried under N2. • 3. The dried hair strands were then soaked into 0.2 mL of 50 mM phosphate buffer solution (pH 8) comprising 100 mM triacetin and 250 mM H2O2 for 15 min, dried, then rinsed with DI water and then dried again. • 4.

[4] = Impact of additives on perhydrolase activity, PAA indicator strip; format: biochemical; conditions: glycerin, ethanol, sorbitol, polyethylene glycol or propylene glycol additive
Procedure: A peracetic acid indicator strip with detection range from 75 to 400 ppm was used to study the impact of additives on the perhydrolase activity of a perhydrolase. When the PAA concentration is at least 0.2 wt %, the dark color generated on the indicator strip will turn back to original white color over time.
A first solution (“solution A”) was prepared using 50 mM phosphate buffer (pH 8) and 10 wt % of one of the following additives: glycerin, ethanol, sorbitol, polyethylene glycol, propylene glycol in, respectively.
A second solution (“solution B”) was prepared by mixing 30% H2O2 and 50 mM phosphate buffer (pH 8) whereby the final concentration of H2O2 was 500 mM.
A third solution (“solution C”) was prepared comprising of CPAH-HC1010 (SEQ ID NO: 295) (0.2 mg/mL), triacetin (200 mM), 50 mM phosphate buffer (pH 8), and solution A (5 wt % additive). Immediately, added solution B in a 1:1 volume ratio. After 1 to 5 min, a 30-μL sample of the resulting solution was removed and immediately placed on a PAA indicator strip.
This process was repeated for each of the additives listed above.

## CC(=O)OO [PAA, peracetic acid]
[1]; [PAA] 0.01 wt % then reductive solution (5 wt % potassium thioglycolate, pH 7.5), 20 min × 16, urea 10 wt %
  Ten. @ Max: 1.2 gf/den
[1]; [PAA] 0.01 wt %, 20 min × 16, urea 10 wt %, pH 8
  Ten. @ Max: 1.7 gf/den
[1]; [PAA] 0.02 wt % then reductive solution, 20 min × 16, urea 10 wt %
  Ten. @ Max: 1.6 gf/den
[1]; [PAA] 0.02 wt %, 20 min × 16, urea 10 wt %, pH 8
  Ten. @ Max: 1.7 gf/den
[1]; [PAA] 0.02 wt %, soaking 2 hr, pH 6
  Ten. @ Max: 1.7 gf/den
[1]; [PAA] 0.02 wt %, soaking 2 hr, urea 0 wt %
  Ten. @ Max: 1.6 gf/den
[1]; [PAA] 0.02 wt %, soaking 4 hr, urea 20 wt %
  Ten. @ Max: 1.7 gf/den
[1]; [PAA] 0.05 wt % then reductive solution, 20 min × 16, urea 10 wt %
  Ten. @ Max: 0.8 gf/den
[1]; [PAA] 0.05 wt %, 20 min × 16, urea 10 wt %, pH 8
  Ten. @ Max: 1.5 gf/den
[1]; [PAA] 0.10 wt % then reductive solution, 20 min × 8, urea 10 wt %
  Ten. @ Max: 0.9 gf/den
[1]; [PAA] 0.10 wt %, 20 min × 16, urea 10 wt %, pH 8
  Ten. @ Max: 1.1 gf/den
[1]; [PAA] 0.20 wt % then reductive solution, 20 min × 8, urea 10 wt %
  Ten. @ Max: 0.7 gf/den
[1]; [PAA] 0.20 wt %, 20 min × 16, urea 10 wt %, pH 8
  Ten. @ Max: 0.7 gf/den
[1]; [PAA] 0.20 wt %, 30 min × 8, urea 20 wt %, pH 8
  Ten. @ Max: 1.3 gf/den
[1]; [PAA] 0.20 wt %, 30 min × 16, urea 20 wt %, pH 8
  Ten. @ Max: 0.6 gf/den
[1]; [PAA] 0.20 wt %, soaking 2 hr, pH 6
  Ten. @ Max: 1.5 gf/den
[1]; [PAA] 0.20 wt %, soaking 2 hr, pH 8
  Ten. @ Max: 1.6 gf/den
[1]; [PAA] 0.20 wt %, soaking 2 hr, urea 20 wt %
  Ten. @ Max: 1.6 gf/den
[1]; [PAA] 0.20 wt %, soaking 4 hr, urea 20 wt %
  Ten. @ Max: 1.5 gf/den
[1]; [PAA] 0.60 wt %, 30 min × 8, urea 20 wt %, pH 8
  Ten. @ Max: 0.4 gf/den
[1]; [PAA] 0.60 wt %, 30 min × 16, urea 20 wt %, pH 8
  Ten. @ Max (hair integrity): NA: Not applicable as all hair strains in sample 6 lost their integrity before the 16th application and could not be analyzed.
[1]; [PAA] 0.60 wt %, soaking 2 hr, pH 6
  Ten. @ Max: 1.3 gf/den
[1]; [PAA] 0.60 wt %, soaking 2 hr, pH 8
  Ten. @ Max: 1.3 gf/den
[1]; [PAA] 0.60 wt %, soaking 2 hr, urea 0 wt %
  Ten. @ Max: 1.3 gf/den
[1]; [PAA] 0.60 wt %, soaking 2 hr, urea 20 wt %
  Ten. @ Max: 1.4 gf/den
[1]; [PAA] 0.60 wt %, soaking 4 hr, urea 0 wt %
  Ten. @ Max: 1.2 gf/den
[1]; [PAA] 0.60 wt %, soaking 4 hr, urea 20 wt %
  Ten. @ Max: 0.8 gf/den
[1]; [PAA] 2.00 wt %, soaking 2 hr, pH 6
  Ten. @ Max: 0.9 gf/den
[1]; [PAA] 2.00 wt %, soaking 2 hr, pH 8
  Ten. @ Max: 0.8 gf/den
[1]; longer soaking time and 20% urea
  effective PAA concentration: about 0.6 wt %
[1]; multiple treatments up to 16 times, 20 wt % urea
  effective PAA concentration to achieve target hair weakening level: 0.2 wt %
[1]; single application, 2 hours, pH 6 and pH 8
  PAA concentration needed to achieve the targeted hair weakening level: greater than 0.6 wt %
[2]; solution (a): 0.6 wt % PAA, 0.5 wt % SLES
  application at which the wool fibers were completely removed: 19 application
[2]; solution (b): 0.6 wt % PAA
  application at which the wool fibers were completely removed: 23 application
[2]; solution (c): 0.2 wt % PAA, 0.5 wt % SLES
  application at which the wool fibers were completely removed: 24 application

B1: CPAH-HC1010: fusion peptide C277S-HC1010 further comprising a D128G substitution (protein)
chain: MAFFDLPLEELKKYRPERYEEKDFDEFWEETLAESEKFPLDPVFERMESHLKTVEAYDVTFSGYRGQRIKGWLLVPKLEEEKLPCVVQYIGYNGGRGFPHDWLFWPSMGYICFVMDTRGQGSGWLKGGTPDYPEGPVDPQYPGFMTRGILDPRTYYYRRVFTDAVRAVEAAASFPQVDQERIVIAGGSQGGGIALAVSALSKKAKALLCDVPFLCHFRRAVQLVDTHPYAEITNFLKTHRDKEEIVFRTLSYFDGVNFAARAKIPALFSVGLMDNISPPSTVFAAYNYYAGPKEIRIYPYNNHEGGGSFQAVEQVKFLKKLFEKGGPGSGGAGSPGSAGGPGSAQSQLPDKHSGLHERAPQRYGSGTAEIQSSKNPNPHPQRSWTNGSGHNHMQERYTDPQHSPSVNGLGSGHDHKNQKETHQRHAASSHHHHHH
[3]; 1.0 mg/mL enzyme pH 6
  Bleaching Start: 12th
[3]; 1.0 mg/mL enzyme pH 6, 100 mM triacetin, 250 mM H2O2, up to 13 repeats
  Tenacity @ max: 1.2 gf/den
[4]
  perhydrolase activity (PAA by indicator strip) in presence of additives: ≥ 2000 ppm

Source: patent US20130171217A1, “ENZYMATIC PERACID GENERATION FOR USE IN SKIN CARE PRODUCTS” (E I DU PONT DE NEMOURS AND COMPANY, priority 2010, published 2013)
